Measured values: patent US20070059242A1, “METHODS TO IDENTIFY THERAPEUTIC AGENTS” (priority 2005, published 2007)

What was measured:
[1] = test system: leukocyte cell lines; assay: Cytotoxicity to leukocyte cell lines (similar procedures); format: cell-based
Protocol: (§1) Cytotoxicity assays. WI-L2 human B-lymphocyte line, HAAE-1 human abdominal aortic endothelial line, MH-S murine alveolar macrophage line, and J774A.1 murine tissue macrophage line were obtained from the ATCC. Human aortic endothelial cells (HAEC) and human vascular smooth muscle cells (VSMS) were obtained from Cambrex Bio Science. Jurkat E6-1T-lymphocytes were kindly provided by Dr. J. Kaye (The Scripps Research Institute). Cells were cultured in ATCC-recommended media with 10% fetal calf serum. Cells were incubated in a controlled atmosphere at 37° C., with 5 or 7% CO2. For lactate dehydrogenase (LDH) release assays, adherent cells were harvested either by addition of 0.05% trypsin/EDTA or by scraping. The cells obtained were seeded onto 96-well microtiter plates (25,000 cells/well) and allowed to recover for 24-48 h. Cells were washed gently and media replaced with fresh media containing 5% fetal calf serum. […] Cytotoxicity was then determined by measuring lactate dehydrogenase (LDH) release from cells in culture. […] 100% Cytotoxicity was defined as the maximum amount of LDH released by dead cells as shown by trypan blue exclusion, or the highest amount of LDH detected upon lysis of cells by 0.9% Triton X-100. The IC50 values were determined by comparison of the raw duplicate data for concentration versus cytotoxicity (%) to non-linear regression analysis (Hill plot) using Graphpad v3.0 software for Macintosh.

[2] = test system: THP-1 monocytes; assay: Monocyte morphology changes (differentiation into macrophages); format: cell-based, human; conditions: 12.5 or 25 μM, 7 days
Protocol: THP-1 monocytes in suspension were plated in 8-well chambered slides. […] Media containing appropriate treatment compounds was replaced after 4 days. […]

[3] = test system: WI-L2 human B-lymphocyte line; assay: LDH release cytotoxicity assay, WI-L2; format: cell-based; conditions: B-cell (WI-L2) cell line, concentration range of FIG. 6A
Protocol: as §1
The following cell lines were employed in this study: a human B-lymphocyte (WI-L2) described in Levy et al., Cancer 22, 517 (1968); a T-lymphocyte cell line (Jurkat E6.1) described in Weiss et al., J. Immunol. 133, 123 (1984); a vascular smooth muscle cell line (VSMC) and an abdominal aorta endothelial (HAEC) cell line described in Folkman et al., Proc. Natl. Acad. Sci. U.S.A. 76, 5217 (1979); a murine tissue macrophage (J774A.1) described in Ralph et al., J. Exp. Med. 143, 1528 (1976); and an alveolar macrophage cell line (MH-S) described in Mbawuike et al., J. Leukoc. Biol. 46, 119 (1989).

[4] = test system: T-lymphocyte cell line (Jurkat E6.1); assay: LDH release cytotoxicity assay, Jurkat; format: cell-based; conditions: T-cell (Jurkat) cell line, concentration range of FIG. 6B
Protocol: as §1, with “h.” for “h. Cells were washed gently and media replaced with fresh media containing 5% fetal calf serum.”, “Macintosh. […]” for “Macintosh.”

[5] = test system: E-selectin; assay: Endothelial adhesion molecule expression ELISA, E-selectin; format: cell-based, human; conditions: HAAE-1, not complexed with LDL
Protocol: (§2) Endothelial cell surface adhesion molecule expression was measured by ELISA, using anti-human CD54 (ICAM-1), CD106 (VCAM-1) and CD62E (E-Selectin) antibodies (Leinco Technologies, Inc., St. Louis, Mo.). The ELISA method was modified from previously described procedures.
(§3) Cells were then incubated with antibodies to VCAM-1, E-selectin, or ICAM-1 diluted 1:400 in PBS containing 5% FCS at 37° C. for 30 min. Wells were washed two times with PBS, then incubated with horseradish peroxidase (HRP)-conjugated goat anti-mouse IgG (Southern Biotechnology Associates, Birmingham, Ala., USA) in PBS/5% FCS at 37° C. for 30 min. The wells were washed four times with PBS, then incubated with H2O2/3,3′,5,5′-tetramethyl-benzidine peroxidase substrate (Pierce Chemical, Rockford, Ill., USA) for 30 min in the dark. The reaction was stopped by adding 25 μl of 8 N H2SO4, and the plates read on a microplate reader, blanking on wells stained with only secondary antibody. Each assay was performed in triplicate and the data are reported as the mean±SEM as a percentage of the expression level of the vehicle. To study the effect of cholesterol ozonation product 5a concentration (5-50 μM) on E-selectin expression, the assay was performed in an identical fashion as described above, with each point being the mean±SEM of at least duplicate measurements.

[6] = test system: VCAM-1; assay: Endothelial adhesion molecule expression ELISA, VCAM-1; format: cell-based, human; conditions: HAAE-1, not complexed with LDL
Protocol: as §2, §3

[7] = test system: ICAM-1; assay: Endothelial adhesion molecule expression ELISA, ICAM-1; format: cell-based, human; conditions: HAAE-1, not complexed with LDL
Protocol: as §2, §3

[8] = test system: J774A.1 macrophages; assay: Uptake and localization in macrophages by fluorescence microscopy; format: cell-based, murine; conditions: 50 μM dansyl derivative, 5 min to 1 h; not complexed with LDL
Protocol: J774A.1 cells were plated in 8-well chambered slides (Nalge Nunc International). Cells were gently washed twice with PBS, pH 7.4 before 5 min or 1 h exposure to 50 μM dansyl derivative of cholesterol ozonation product 5d or 5e, dansyl cholesterol derivative 9c or 9d, or dansyl hydrazine diluted in media without FCS (0.05% v/v final DMSO concentration). [drawing 28] Media was removed by aspiration and cells were fixed immediately in 95% ice cold methanol for 5 min. Cells were mounted in glycerol containing Antifade reagent (Molecular Probes). Fluorescence images were documented using DeltaVision Deconvolution microscope (API, Issaquah WA) equipped with a Photometrics CH350L liquid cooled CCD camera attached to an Olympus IX—70 inverted microscope. […] All images were deconvolved using constrained iterative algorithms (10 iterations) of DeltaVision software (softWoRx, v2.5). The deconvolved images were subsequently processed using softWoRx, v2.5.
In some experiments, murine macrophage RAW 264.7 (ECACC 91062702) cells were grown in RPMI (Gibco) with 10% FCS at 37° C. with 5% CO2. For fluorescence imaging, cells were incubated on cover slips in 6-well chambered plates (Costar) for 12 h, gently washed 3 times in PBS at pH 7.4, and incubated with 50 μM dansyl derivative of cholesterol ozonation product 5d or 5e, dansyl cholesterol derivative 9c or 9d, in RPMI with 10% FCS for 5, 15, 30, and 60 min. A solution of the dansyl derivative was then added in DMSO [final DMSO, 0.05% (v/v)]. Media was removed by aspiration, and cells were washed twice with PBS, followed by fixing in paraformaldehyde (3.7% in PBS) for 10 min. Cover slips were mounted in MOWIOL 4-88 (Calbiochem). Microscopy was performed using an inverted Zeiss Axioscope 2 Plus fluorescence microscope, and images were obtained with a Zeiss Axiocam digital camera using Axiovision software (version 3.1). The data were collected using a 63× oil immersion lens and DAPI filter (excitation 360/emission 460), and images were processed with Axiovision software and Adobe software (Photoshop 6.0).

CC(C)CCC[C@@H](C)[C@H]1CCC2C3C(C=O)=C4C=CCC[C@]4(C)C3CC[C@@]21C (stereo partly drawn) [12a, B-norcholest-3,5-diene-6-carboxaldehyde]
cytotoxic to leukocyte cell lines [1]: cytotoxic

CC(C)CCC[C@@H](C)[C@H]1CCC2[C@H](CC(=O)O)C([C@@]3(C)CC[C@H](O)CC3=O)CC[C@@]21C (stereo partly drawn) [10a]
cytotoxic to leukocyte cell lines [1]: cytotoxic

CC(C)CCC[C@@H](C)[C@H]1CC[C@H]2[C@@H]3C(=O)C=C4C[C@@H](O)CC[C@]4(C)[C@H]3CC[C@]12C [7-KC, 7-ketocholesterol, reference compound]
THP-1 cell adherence (differentiation into macrophages) [2]: began to adhere after 4 days

CC(C)CCC[C@@H](C)[C@H]1CC[C@H]2[C@@H]3CC=C4C[C@@H](O)CC[C@]4(C)[C@H]3CC[C@]12C [compound 3, cholesterol, reference compound]
cytotoxicity [3]: No cytotoxicity | cytotoxicity [4]: No cytotoxicity | selectin (E-selectin) expression [5]: no effects | integrin (VCAM-1) expression [6]: no effects | integrin (ICAM-1) expression [7]: no effects | THP-1 cell adherence (differentiation into macrophages) [2]: induced no cell adherence

C[C@H](CCCC(=O)NS(=O)(=O)c1cccc2c(N(C)C)cccc12)[C@H]1CCC2C3CC=C4C[C@@H](O)CCC4(C)C3CC[C@@]21C (stereo partly drawn) [9d, reference compound]
uptake and localization in macrophages [8]: minimal fluorescence

CC(C)CCC[C@@H](C)[C@H]1CCC2C3C(CC[C@@]21C)[C@@]1(C)CCC=C[C@@]1(O)[C@@H]3CO (stereo partly drawn) [7c]
cytotoxic to leukocyte cell lines [1]: cytotoxic

CC(C)CCC[C@@H](C)[C@H]1CCC2C3C(CC[C@@]21C)[C@@]1(C)CCC=C[C@@]1(O)[C@@H]3C=O (stereo partly drawn) [7a, 5β-Hydroxy-B-norcholest-3-ene-6β-carboxaldehyde]
cytotoxic to leukocyte cell lines [1]: cytotoxic

CC(C)CCC[C@@H](C)[C@H]1CCC2C(CC=O)C([C@@]3(C)CCC=CC3=O)CC[C@@]21C (stereo partly drawn) [6a, 5-Oxo-5,6-secocholest-3-en-6-al]
cytotoxic to leukocyte cell lines [1]: cytotoxic

CC(C)CCC[C@@H](C)[C@H]1CCC2[C@H](CC=O)C([C@@]3(C)CCCCC(=O)O3)CC[C@@]21C (stereo partly drawn) [11a]
cytotoxic to leukocyte cell lines [1]: cytotoxic

C[C@H](CCCC(=O)NS(=O)(=O)c1cccc2c(N(C)C)cccc12)[C@H]1CCC2C3C(CC[C@@]21C)C1(C)CC[C@H](O)CC1(O)[C@@H]3C=O (stereo partly drawn) [5e]
uptake and localization in macrophages [8]: initial punctate cytosolic accumulation
